Values quoted from earlier work, collected in patent US6849628B2, “Optically active compounds” (The University of Strathclyde, priority 1986, dated 2005).

How the values were obtained:
one-carbon metabolism = conditions: Montgomery et al 1981; only the (6S) diastereoisomer is effective
[1] = target: T1, glycinamide ribonucleotide (GAR) formyl-transferase from chicken liver (Gallus gallus, UniProt P21872); conditions: Smith, Benkovic and Benkovic 1981
T1 construct: host or cells: chicken liver
T1 sequence (P21872 1-1003): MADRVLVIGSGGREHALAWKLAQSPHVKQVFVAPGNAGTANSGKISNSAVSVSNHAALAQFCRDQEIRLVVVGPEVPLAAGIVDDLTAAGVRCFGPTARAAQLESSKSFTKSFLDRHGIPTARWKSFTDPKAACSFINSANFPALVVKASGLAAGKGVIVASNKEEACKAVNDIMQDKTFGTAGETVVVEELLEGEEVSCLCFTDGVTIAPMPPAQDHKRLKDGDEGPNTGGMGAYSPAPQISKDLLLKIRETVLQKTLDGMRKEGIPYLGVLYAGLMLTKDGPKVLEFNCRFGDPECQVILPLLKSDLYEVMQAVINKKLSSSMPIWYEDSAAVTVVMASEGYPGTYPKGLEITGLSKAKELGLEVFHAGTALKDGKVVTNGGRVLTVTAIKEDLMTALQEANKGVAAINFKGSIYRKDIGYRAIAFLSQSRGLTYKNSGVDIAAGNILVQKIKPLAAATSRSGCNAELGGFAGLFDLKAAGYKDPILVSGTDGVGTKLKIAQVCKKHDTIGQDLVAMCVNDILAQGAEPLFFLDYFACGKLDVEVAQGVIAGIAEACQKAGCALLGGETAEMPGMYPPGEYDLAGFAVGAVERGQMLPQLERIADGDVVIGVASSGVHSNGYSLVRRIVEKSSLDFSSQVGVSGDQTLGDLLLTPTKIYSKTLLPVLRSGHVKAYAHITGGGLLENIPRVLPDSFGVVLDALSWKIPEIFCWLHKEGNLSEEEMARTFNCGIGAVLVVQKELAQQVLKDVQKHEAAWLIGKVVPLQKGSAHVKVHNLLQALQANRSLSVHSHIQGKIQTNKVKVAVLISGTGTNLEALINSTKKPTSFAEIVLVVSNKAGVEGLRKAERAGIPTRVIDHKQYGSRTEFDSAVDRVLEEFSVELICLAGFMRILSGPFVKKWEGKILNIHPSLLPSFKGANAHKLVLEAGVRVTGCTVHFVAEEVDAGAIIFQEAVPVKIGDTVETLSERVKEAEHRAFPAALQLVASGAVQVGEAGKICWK

[2] = target: T2, thymidylate synthase from L. casei (Lacticaseibacillus casei, UniProt P00469); conditions: Leary et al 1973
T2 sequence (P00469 1-316): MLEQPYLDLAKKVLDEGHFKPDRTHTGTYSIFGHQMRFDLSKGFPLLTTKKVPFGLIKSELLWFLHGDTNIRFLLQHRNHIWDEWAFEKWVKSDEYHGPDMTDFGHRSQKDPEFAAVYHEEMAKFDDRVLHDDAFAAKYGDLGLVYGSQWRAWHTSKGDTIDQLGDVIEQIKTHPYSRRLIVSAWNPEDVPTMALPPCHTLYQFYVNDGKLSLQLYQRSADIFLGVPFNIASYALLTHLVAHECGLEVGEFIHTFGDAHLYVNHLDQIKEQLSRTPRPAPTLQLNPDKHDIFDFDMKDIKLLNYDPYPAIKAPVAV

[3] = target: 5,10-methylene tetrahydrofolate dehydrogenase from E. coli (Escherichia coli, UniProt P24186); conditions: Scott and Donaldson 1964

## calcium 5-formyl-(6S) tetrahydrofolate [Ib]
one-carbon metabolism
  effectiveness in restoring one-carbon metabolism: effective in restoring one-carbon metabolism

## Nc1nc2c(c(=O)[nH]1)NC(CN(C=O)c1ccc(C(=O)N[C@@H](CCC(=O)O)C(=O)O)cc1)CN2 (single isomer, unassigned) [non-natural diastereoisomer of 10-formyltetrahydrofolate, 10-formyltetrahydrofolate]
[1]
  inhibition of GAR formyl-transferase: potent competitive inhibitor

## Nc1nc2c(c(=O)[nH]1)N1CN(c3ccc(C(=O)N[C@@H](CCC(=O)O)C(=O)O)cc3)CC1CN2 (single isomer, unassigned) [non-natural diastereoisomer of 5,10-methylene tetrahydrofolate, 5,10-methylene tetrahydrofolate]
[2]
  inhibition of thymidylate synthase: inhibited
[3]
  inhibition of 5,10-methylene tetrahydrofolate dehydrogenase: inhibited
